The nature of data set [1]: Thermodynamic stability experiment of crystal form (slurrying in solvents). The format is physicochemical. On the procedure: Through polycrystalline screening test, the relatively thermodynamically stable crystal form of salt was found.
The mixture was slurried at 40 degrees for 2 days, and centrifuged, and the solid was oven-dried in vacuo at 40 degrees overnight, and then XRD and other corresponding characterizations were performed.

Data set [2] can be described thus: Solubility determination of crystal form C of tromethamine salt. It counts as physicochemical. The following applies: 37 °C, thermodynamic from solid. The method, then: 1 to 2 mg of compound 28 was weighed into a 1.5 mL liquid phase vial, then 1 mL of pH buffer, artificial simulated gastric fluid (FaSSGF), artificial fasted-state simulated intestinal fluid (FaSSIF), artificial non-fasted-state simulated intestinal fluid (FeSSIF), and pure water were respectively added, and the mixture was placed on a constant temperature oscillator overnight at a temperature of 37 degrees. After 24 h, the sample solution was filtered with a 0.45 μm mixed water fiber filter membrane and then the filtrate was taken. The content was tested by HPLC. For the HPLC detection method, please refer to the solution stability analysis method in Section 1.2.

These results are taken from US20260226046A1 (JIANGSU HANSOH PHARMACEUTICAL GROUP CO., LTD., priority 2023, published 2026).

Molecules are shown by their SMILES.

By solubility is commonly meant the concentration that dissolves in the medium under given conditions. As for `O=C(O)c1ccc2nc(CN3CCC(c4cccc5c4OC(c4ccc(Cl)cc4F)C=C5)CC3)n(CC3CCO3)c2c1` (centres unmarked), the “XRD after slurrying for 2 days” value in data set [1] (EA 200 ul, 40 degrees) is “Crystal form C”; in data set [1] (EtOH 200 ul, 40 degrees), “Crystal form C”; in data set [1] (Heptane 200 ul, 40 degrees), “Crystal form C”; in data set [1] (IPA 200 ul, 40 degrees), “Crystal form C”; in data set [1] (IPAC 200 ul, 40 degrees) it was “Crystal form C”; in data set [1] (IPE 200 ul, 40 degrees), “Crystal form C”. Also, the “XRD after slurrying for 2 days” value in data set [1] (MTBE 200 ul, 40 degrees) is “Crystal form C”; in data set [1] (hexane 200 ul, 40 degrees), “Crystal form C”. Further, in data set [1] (slurried in solvents at 40 degrees for 2 days), the “Stability of crystal form (in words)” value is recorded as “very stable”. Further, in data set [1] (water 200 ul, 10 mg, 40 degrees), the “Phenomenon after slurrying for 2 days” value was “Dissolved clarification”. Moreover, the solubility at 24 h in data set [2] (aqueous buffer, USP Buffer pH 7.4, 37 degrees) turned out to be 254 µg/mL; in data set [2] (FaSSIF, 37 degrees), 478 µg/mL; in data set [2] (FeSSIF, 37 degrees) it was 756 µg/mL; in data set [2] (water, H2O, 37 degrees) it was 66.4 µg/mL.
